Test results published in US6495587B1, “Tricyclic indole-2-carboxylic acid compound used as NMDA receptor antagonist” (Sumitomo Pharmaceuticals Company, Limited, priority 1999, dated 2002).
Structures can show the parent of a compound that is named as a salt. Where two headings read alike, the source gives them in different places.

Legend:
[1] = Characteristic moisture absorption (Vapor Sorption Analyzer); format: physicochemical; conditions: 25° C.; for Water taken up by the dehydrated sample: 0% R.H. to 95% R.H. and back to 10% R.H.
Method: Characteristic moisture absorption of the crystalline hydrochloride monohydrate [C-5] and the hydrochloride [C-4] which is in the form of an amorphous powder were measured with a Vapor Sorption Analyzer MB300G-3 (VTI Corporation).
In advance of measurement, the weighed samples put in the Analyzer were dehydrated at 60° C. under reduced pressure.

[2] = tested on: tonic convulsions after i.c.v. administration of NMDA; experiment: Anti-convulsion test (NMDA i.c.v.); format: in vivo, mice; conditions: 20 min before NMDA 5 nmol i.c.v.
Method: Twenty minutes after intravenous administration of the test compound (1 to 10 mg/kg) into each of ten mice tested, NMDA (5 nmol) was administered intracerebroventricularly (i.c.v.). […] The hydrochloride [C-4] at 10 mg/kg i.v. protected 90% of mice from tonic convulsions.

[3] = target: T1, glycine binding site of the NMDA receptor (rat brain synaptic membrane) (Rattus norvegicus, UniProt P35439); experiment: [3H]-DCKA binding test; conditions: 10 nM [3H]-DCKA, 2° C., 10 min, pH 7.4; read-out: IC50, inhibition of [3H]-DCKA binding
T1 construct: A crude rat brain synaptic membrane preparation; from tissue; host or cells: rat brain synaptic membranes (Triton X-100 treated)
Method: A crude rat brain synaptic membrane preparation was washed three time with 50 mM Tris acetate buffer (pH 7.4) and centrifuged at 50,000×g for 30 min. The pellets obtained were suspended in 0.32M sucrose solution and stored at −80° C. For binding studies, the frozen suspension was thawed, treated with 0.08-0.10% triton X-100 at 2° C. for 10 min. The membrane suspension was washed twice and centrifuged at 50,000×g for 30 min. The synaptic membrane thus prepared (ca. 100 μg of protein) was incubated with 10 nM [^3H]-5,7-dichlorokynurenic acid (DCKA) and the test compound (10 to 0.1 ng/mL) at 2° C. for 10 min in 50 mM Tris acetate buffer (pH 7.4). The incubation was terminated by suction filtration using Whatman GF/B glass filter. The radioactivity bound to the membrane on the filter was measured by scintillation counting. Non-specific binding was calculated by the radioactivity measured under the incubations in the presence cf 0.1 mM glycine.

[4] = format: physicochemical; conditions: for HPLC integrated intensity (%) under 75% R.H. / HPLC integrated intensity (%) in a sealed tube: 60° C.
Method: The hydrochloride monohydrate [C-5] was kept at a temperature of 60° C., in a sealed tube or under 75% R.H.(relative humidity) for 4 weeks. Thereafter, the remaining amount of the compound was assayed with high performance liquid chromatography (HPLC).

IC50 [3] [nM]	HPLC integrated intensity (%) under 75% R.H. ([4]; 2 weeks) [%]	HPLC integrated intensity (%) under 75% R.H. ([4]; 4 weeks) [%]	HPLC integrated intensity (%) under 75% R.H. ([4]; Initial) [%]	HPLC integrated intensity (%) in a sealed tube ([4]; 2 weeks) [%]	HPLC integrated intensity (%) in a sealed tube ([4]; 4 weeks) [%]	HPLC integrated intensity (%) in a sealed tube ([4]; Initial) [%]	Water taken up, theoretical weight change for one molecular equivalent ([1]; moist atmosphere) [wt %]	SMILES	Water taken up by the dehydrated sample [1]	Mice protected from tonic convulsions ([2]; 10 mg/kg i.v., ten mice) [%]	ED50 ([2]; Mus musculus, iv, mice, read-out: ED50, protection from tonic convulsions) [mg/kg]	Increase of impurities or degradation products in HPLC charts [4]
1.4	–	–	–	–	–	–	–	C[C@@H](Oc1cc(CN)ccc1NC(=O)C[C@@H]1CCc2cc(Cl)cc3[nH]c(C(=O)O)c1c23)C(=O)O [C-4, (3S)-7-Chloro-3-(2-((1R)-1-carboxyethoxy)-4-aminomethylphenyl)aminocarbonylmethyl-1,3,4,5-tetrahydrobenz[c.d]indole-2-carboxylic Acid Hydrochloride]	more than 2.5 molecular equivalents of water	90	2.3	–
–	99.2	99.5	99.3	99.3	99.6	99.3	3.45	C[C@@H](Oc1cc(CN)ccc1NC(=O)C[C@@H]1CCc2cc(Cl)cc3[nH]c(C(=O)O)c1c23)C(=O)O.Cl.O [C-5]	one	–	–	did not show any increase of impurities or degradation products
16	–	–	–	–	–	–	–	C[C@H](Oc1cc(CN)ccc1NC(=O)C[C@@H]1CCc2cc(Cl)cc3[nH]c(C(=O)O)c1c23)C(=O)O [D-2, (3S)-7-Chloro-3-(2-((1S)-1-carboxyethoxy)-4-aminomethylphenyl)aminocarbonylmethyl-1,3,4,5-tetrahydrobenz[c.d]indole-2-carboxylic Acid Hydrochloride, reference compound]	–	–	–	–
